What was measured:
[1] = Particle size and polydispersity index of nanoparticle compositions (Zetasizer Nano ZS); type: physicochemical; details: for particle size, rank within the named table (in words): comparison amongst compositions
Method in brief: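 Nanoparticle compositions are diluted in 1×PBS, then size and polydispersity index are read on a Zetasizer Nano ZS instrument.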

[2] = Encapsulation efficiency of RNA (QUANT-IT RIBOGREEN RNA assay); type: physicochemical
Method in brief: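 Nanoparticle samples diluted to ~5 μg/mL RNA in TE buffer (pH 7.5), incubated with or without 2% Triton X-100 solution at 37 °C for 15 min, then RiboGreen added. Fluorescence read at ~480/520 nm, blank-subtracted; free RNA % = intact over Triton-disrupted signal.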

[3] = pKa of nanoparticle compositions; type: physicochemical
[4] = tested on: luciferase (Luc) mRNA expression; assay: Expression of Luc induced by sample formulations, whole-body bioluminescence after intravenous administration; type: in vivo; details: mice, i.v., 0.5 mg/kg
Method in brief: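 Mice (n=6) dosed intravenously with Luc mRNA nanoparticle formulations at 0.5 mg/kg. Whole-body bioluminescence measured at 3, 6 and 24 h. Standard MC3 formulation and PBS control run alongside.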

[5] = tested on: modified luciferase expression; assay: Expression of Luc in different organs (liver, lung, spleen, femur) 6 hours after intravenous administration; type: in vivo; details: i.v., 0.5 mpk
Description: The efficacy of the nanoparticle compositions presented in Tables 1, 1a, 17-1, 19-1, 20-1 and 21-1 was further evaluated by measuring the expression of modified luciferase in the liver, lung, spleen, and femur upon administration of a given composition. Formulations were administered intravenously to mice (n=3) at a dosage of 0.5 mpk and bioluminescence measured after 6 hours. The standard MC3 formulation and a PBS control were also tested.

IL-6 = assay: Cytokine production induced by sample formulations: IL-6; type: in vivo; details: mice, i.v., 0.5 mpk, 6 hours; for IL-6: in pg/mL (unit assumed)
Method in brief: (§1)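 Mice received nanoparticle formulations intravenously at 0.5 mpk, with standard MC3 formulation and PBS as controls. Cytokine concentrations were measured 6 hours after dosing.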

IP-10 = assay: Cytokine production induced by sample formulations: IP-10; type: in vivo; details: mice, i.v., 0.5 mpk, 6 hours; for IP-10: in pg/mL (unit assumed)
Method in brief: as §1

[6] = Table 1, rows without footnote mark
[7] = Table 1, rows without footnote mark (lipid:DOPE:cholesterol:PEG-DMG 40:20:38.5:1.5, Luc mRNA; MC3 standard formulation)
[8] = Table 1, * lipid:DSPC:Chol:PEG-DMG 50:10:38.5:1.5
[9] = Table 20-1, rows without footnote mark

Structure (SMILES): CCCCCCCCCCCCCCN(CCCCCCCCCCCCCC)CCN(CCCCCCCCCCCCCC)CCN1CCN(CCN(CCCCCCCCCCCC)CCCCCC(=O)OCCCCC)CC1 [Compound 13, Pentyl 6-((2-(4-(2-((2-(ditetradecylamino)ethyl)(tetradecyl)amino)ethyl)piperazin-1-yl)ethyl)(dodecyl)amino)hexanoate]
- PDI [1, 6]: 0.080
- Size (nm) [1, 7]: 97.7 nm
- EE (%) [2, 6]: 64.2%
- pKa [3, 6]: 6.30
- Total Flux 3 hours ([4]; Table 2): 3.59E+09
- Total Flux 6 hours ([4]; Table 2): 3.80E+09
- Total Flux 24 hours ([4]; Table 2): 3.11E+08
- Total Flux Femur ([5]; Table 3, mice): 1.99E+06
- Total Flux Liver ([5]; Table 3, mice): 6.10E+08
- Total Flux Lung ([5]; Table 3, mice): 2.89E+06
- Total Flux Spleen ([5]; Table 3, mice): 3.63E+07
- IL-6 (IL-6; Table 4): 301
- IL-6 induction, rank within the named table (in words) (IL-6): highest expression
- IP-10 (IP-10; Table 4): 7266
- IP-10 induction, rank or comparison with IL-6 (in words) (IP-10): highest expression

Structure (SMILES): CCCCCCCCCCCCCCN(CCCCCCCCCCCCCC)CCN1CCN(CCN(CCCCCCCCCCCC)CCN(CCCCCCCCCCCC)CCCCCCCCCCCC)CC1 [Compound 26, N^1-(2-(4-(2-(Ditetradecylamino)ethyl)piperazin-1-yl)ethyl)-N^1,N^2,N^2-tridodecylethane-1,2-diamine]
- Size (nm) ([1]; Table 1, * formulated with lipid:DSPC:Chol:PEG-DMG 50:10:38.5:1.5): 74.2 nm
- PDI [1, 8]: 0.112
- EE (%) [2, 8]: 84.9%
- pKa [3, 8]: 6.19
- Total Flux 3 hours ([4]; Table 2): 1.65E+07
- Total Flux 6 hours ([4]; Table 2): 1.04E+07
- Total Flux 24 hours ([4]; Table 2): 2.75E+06
- Total Flux Liver ([5]; Table 3, mice): 2.35E+06
- Total Flux Lung ([5]; Table 3, mice): 3.49E+04
- Total Flux Spleen ([5]; Table 3, mice): 2.30E+05
- IL-6 (IL-6; Table 4): 17
- IP-10 (IP-10; Table 4): 175

Structure (SMILES): CCCCCCCCCCCCN(CCCO)CCCCCCCCCCCC [Compound 17-12, 3-(Didodecylamino)propan-1-ol]
- PDI ([1]; Table 17-1): 0.148
- Size (nm) ([1]; Table 17-1): 76.1 nm
- particle size, rank within the named table (in words) [1]: smallest particles
- EE (%) ([2]; Table 17-1): 95.04%
- pKa ([3]; Table 17-1): 6.83
- Total Flux 3 hours ([4]; Table 17-2): 2.94E+06
- Total Flux 6 hours ([4]; Table 17-2): 2.54E+06
- Total Flux 24 hours ([4]; Table 17-2): 4.66E+05
- Total Flux Liver ([5]; Table 17-3, mice): 4.94E+05
- Total Flux Lung ([5]; Table 17-3, mice): 4.89E+04
- Total Flux Spleen ([5]; Table 17-3, mice): 7.81E+04
- IL-6 (IL-6; Table 17-4): 83.1
- IP-10 (IP-10; Table 17-4): 148

Structure (SMILES): CCCCC/C=C\C/C=C\CCCCCCCCN(CCO)CCN(CCCCCCCC/C=C\C/C=C\CCCCC)CCCCCCCC/C=C\C/C=C\CCCCC [Compound 20-14, 2-((2-(Di((9Z,12Z)-octadeca-9,12-dien-1-yl)amino)ethyl)((9Z,12Z)-octadeca-9,12-dien-1-yl)amino)ethan-1-ol]
- PDI [1, 9]: 0.215
- Size (nm) [1, 9]: 124.0 nm
- EE (%) [2, 9]: 94.5%
- pKa [3, 9]: 5.89
- Total Flux 3 hours ([4]; Table 20-2): 1.76E+09
- Total Flux 6 hours ([4]; Table 20-2): 4.07E+08
- Total Flux 24 hours ([4]; Table 20-2): 8.10E+07
- Total Flux Liver ([5]; Table 20-3, mice): 5.22E+07
- Total Flux Lung ([5]; Table 20-3, mice): 1.08E+05
- Total Flux Spleen ([5]; Table 20-3, mice): 7.03E+05
- IL-6 (IL-6; Table 20-4, formula (20-I)): 311.1
- IP-10 (IP-10; Table 20-4, formula (20-I)): 8436.6
- IP-10 induction, rank or comparison with IL-6 (in words) (IP-10): highest

Structure (SMILES): CCCCCCCCCCCCN(CCCCCCCCCCCC)CCN(CCO)CCCCCC [Compound 20-15, 2-((2-(Didodecylamino)ethyl)(hexyl)amino)ethan-1-ol]
- PDI [1, 9]: 0.118
- Size (nm) [1, 9]: 67.4 nm
- particle size, rank within the named table (in words) [1]: smallest particles
- EE (%) [2, 9]: 97.4%
- pKa [3, 9]: 6.48
- Total Flux 3 hours ([4]; Table 20-2): 3.36E+08
- Total Flux 6 hours ([4]; Table 20-2): 2.25E+08
- Total Flux 24 hours ([4]; Table 20-2): 2.08E+07
- Total Flux Liver ([5]; Table 20-3, mice): 6.74E+07
- Total Flux Lung ([5]; Table 20-3, mice): 5.56E+05
- Total Flux Spleen ([5]; Table 20-3, mice): 1.86E+06
- IL-6 (IL-6; Table 20-4, formula (20-I)): 49.4
- IP-10 (IP-10; Table 20-4, formula (20-I)): 136.3

Structure (SMILES): CCCCCCCCCCCCCCN(CCCCCCCCCCCCCC)CCN(CCCCCCCCCCCCCC)CCN1CCN(CCN(CCCCCCCCCCCC)CCCCCCCCCCCC)CC1 [Compound 31, N^1-(2-(4-(2-(Didodecylamino)ethyl)piperazin-1-yl)ethyl)-N^1,N^2,N^2-tritetradecylethane-1,2-diamine]
- PDI [1, 6]: 0.130
- Size (nm) [1, 7]: 87.9 nm
- EE (%) [2, 6]: 77.5%
- pKa [3, 6]: 6.31
- Total Flux 3 hours ([4]; Table 2): 1.43E+10
- Total Flux 6 hours ([4]; Table 2): 1.42E+10
- Total Flux 24 hours ([4]; Table 2): 3.07E+08
- Total Flux Femur ([5]; Table 3, mice): 9.89E+05
- Total Flux Liver ([5]; Table 3, mice): 1.54E+09
- Total Flux Lung ([5]; Table 3, mice): 9.81E+06
- Total Flux Spleen ([5]; Table 3, mice): 1.28E+07
- IL-6 (IL-6; Table 4): 188
- IP-10 (IP-10; Table 4): 2513

Structure (SMILES): CCCCCCCCCCCCCCN(CCCCCCCCCCCCCC)CCN(CCCCCCCCCCCCCC)CCN1CCN(CCN(CCCCCCCCCCCCCC)CCCCCCCCCCCCCC)CC1 [Compound 32, N^1-(2-(4-(2-(Ditetradecylamino)ethyl)piperazin-1-yl)ethyl)-N^1,N^2,N^2-tritetradecylethane-1,2-diamine]
- PDI [1, 6]: 0.160
- Size (nm) [1, 7]: 79.3 nm
- EE (%) [2, 6]: 83.6%
- pKa [3, 6]: 6.28
- Total Flux 3 hours ([4]; Table 2): 6.85E+08
- Total Flux 6 hours ([4]; Table 2): 5.88E+08
- Total Flux 24 hours ([4]; Table 2): 4.37E+07
- Total Flux Femur ([5]; Table 3, mice): 1.02E+05
- Total Flux Liver ([5]; Table 3, mice): 8.36E+07
- Total Flux Lung ([5]; Table 3, mice): 6.75E+05
- Total Flux Spleen ([5]; Table 3, mice): 9.38E+05
- IL-6 (IL-6; Table 4): 174
- IP-10 (IP-10; Table 4): 727

Structure (SMILES): CCCCCCCCCN(CCCCCCCCC)CCN1CCNCC1 [Compound 19-1, N-Nonyl-N-(2-(piperazin-1-yl)ethyl)nonan-1-amine]
- PDI ([1]; Table 19-1): 0.071
- Size (nm) ([1]; Table 19-1): 98.0 nm
- EE (%) ([2]; Table 19-1): 83.4%
- pKa ([3]; Table 19-1): 6.76
- Total Flux 3 hours ([4]; Table 19-2): 6.77E+05
- Total Flux 6 hours ([4]; Table 19-2): 1.85E+06
- Total Flux 24 hours ([4]; Table 19-2): 2.75E+05
- Total Flux Liver ([5]; Table 19-3, mice): 8.53E+05
- Total Flux Lung ([5]; Table 19-3, mice): 1.06E+04
- Total Flux Spleen ([5]; Table 19-3, mice): 1.58E+04
- IL-6 (IL-6; Table 19-4): 144.4
- IP-10 (IP-10; Table 19-4): 51.1
- IP-10 induction, rank or comparison with IL-6 (in words) (IP-10): lowest IP-10 expression
